In US20190119282A1, “IMIDAZOPYRIDAZINES USEFUL AS INHIBITORS OF THE PAR-2 SIGNALING PATHWAY” (Vertex Pharmaceuticals Incorporated, priority 2013, published 2019):
pIC50: −log10 of the molar value.

Columns and labels:
[1] = biological target: T1, PAR2 (HT-29 cells, SLIGKV activation) (Homo sapiens, UniProt P55085); experiment: Ca FLIPR TETRA assay, ANTAGONIST mode, stimulation with 8 μM SLIGKV; type: cell-based; details: HT-29 cells
T1 construct: host or cells: HT-29 cells
T1 sequence (P55085 26-397): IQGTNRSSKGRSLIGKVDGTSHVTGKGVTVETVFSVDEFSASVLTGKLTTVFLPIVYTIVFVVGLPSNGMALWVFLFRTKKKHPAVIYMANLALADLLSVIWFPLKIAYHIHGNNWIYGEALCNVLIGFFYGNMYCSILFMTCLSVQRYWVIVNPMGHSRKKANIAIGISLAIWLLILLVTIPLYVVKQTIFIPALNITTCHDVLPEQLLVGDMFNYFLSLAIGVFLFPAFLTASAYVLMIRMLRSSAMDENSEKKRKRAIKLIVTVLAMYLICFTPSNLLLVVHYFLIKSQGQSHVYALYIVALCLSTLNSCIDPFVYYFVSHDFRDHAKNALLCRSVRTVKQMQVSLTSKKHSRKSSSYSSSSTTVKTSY
Method: (§1) Example 60: Protocol for Testing PAR2 Compounds in ANTAGONIST Mode Using the Ca FLIPR^TETRA Assay (384 Well)
(§2) 23000 HT-29 cells (ATCC# HTB-38) were plated in 384-well black, transparent-flat bottom plates and incubated in 25 uL of 1% FBS/McCoy's media ON at 37° C. under an atmosphere of 5% CO2. The following day, 25 uL FLIPR calcium 5 Molecular Devices assay reagent (Cat: R-8186) was added. Plates were incubated at 37° C. and r. t. for 45 min and 15 min, respectively. Compounds dilutions were prepared in 100% DMSO using a Biomek FX and diluted 20-fold in HBSS and then 5.5 uL was added directly to the cells by the FLIPR^TETRA (10× dilution) using FLIPR Tetra Pipette tips, black, non-sterile, 384 Molecular Devices (Cat: 9000-0764).
(§3) A first read was performed to determine whether the test compounds on their own can activate Ca2+ responses.
(§4) The cells were incubated with the compounds for 30 min at r. t. and then read in ANTAGONIST mode in the same plate by stimulating with 6.2 uL of a fixed concentration of the activator: final concentrations: 8 μM SLIGKV, 1 U/mL Thrombin, 3.1 U/mL trypsin, or 0.6 μM UTP.

[2] = biological target: T2, PAR2 (HT-29 cells, trypsin activation) (Homo sapiens, UniProt P55085); experiment: Ca FLIPR TETRA assay, ANTAGONIST mode, stimulation with 3.1 U/mL trypsin; type: cell-based; details: HT-29 cells
T2 construct: host or cells: HT-29 cells
T2 sequence (P55085 26-397): T1 sequence (P55085 26-397)
Method: as §1, §2, §3, §4

[3] = tested on: Thrombin-stimulated Ca2+ response in HT-29 cells; experiment: Ca FLIPR TETRA assay, ANTAGONIST mode, stimulation with 1 U/mL Thrombin; type: cell-based, human; details: Homo sapiens, HT-29 cells
Method: as §1, §2, §3, §4

[4] = tested on: UTP-stimulated Ca2+ response in HT-29 cells; experiment: Ca FLIPR TETRA assay, ANTAGONIST mode, stimulation with 0.6 μM UTP; type: cell-based, human; details: for pIC50: Homo sapiens, HT-29 cells
Method: as §1, §2, §3, §4

[5] = stimulation with 3.1 U/mL trypsin
[6] = stimulation with 1 U/mL Thrombin
[7] = antagonist mode, stimulation with 8 μM SLIGKV
[8] = antagonist mode, stimulation with 3.1 U/mL trypsin
[9] = antagonist mode, stimulation with 1 U/mL Thrombin
[10] = antagonist mode, stimulation with 0.6 μM UTP
[11] = antagonist mode, 3.1 U/mL trypsin
[12] = antagonist mode, 1 U/mL Thrombin

| Structure (SMILES) | pIC50 [1, 7] | pIC50 [2, 8] | pIC50 [3, 9] | pIC50 [4, 10] | further results |
| --- | --- | --- | --- | --- | --- |
| COc1ccc(CC(=O)N2CCN(C(=O)c3cn4nc(-c5ccc(F)cc5)cc(C(C)C)c4n3)C[C@@H]2C)cc1 [Compound I-133] |  |  |  |  | pIC50 ([1]; stimulation with 8 μM SLIGKV): 9.00; pIC50 [2, 5]: 8.22; pIC50 [3, 6]: 4.44; pIC50 ([4]; stimulation with 0.6 μM UTP): < 6.30 |
| C[C@@H]1C[C@H](c2cc(-c3ccc(F)cc3)nn3cc(C(=O)N4CCN(C(=O)c5ccn[nH]5)CC4(C)C)nc23)C[C@H](C)O1 [Compound I-214] | 7.67 | 7.57 | ≤ 6.00 | < 6.00 |  |
| CC1(C)CN(C(=O)c2ccn[nH]2)CCN1C(=O)c1cn2nc(-c3ccc(F)cc3)cc(C(F)(F)F)c2n1 [Compound I-271] | 7.88 | 7.52 | < 6.00 | < 6.00 |  |
| Cc1ccc(-c2cc(C(C)C)c3nc(C(=O)N4CCN(C(=O)c5ccn[nH]5)CC4(C)C)cn3n2)cc1F [Compound I-374] | 8.85 | 8.80 | < 6.00 | < 6.00 |  |
| CC(C)(C)c1cc(-c2ccc(F)cc2)nn2cc(C(=O)N3CCN(C(=O)/C=C/C(=O)O)CC3(C)C)nc12 [Compound I-558] |  |  |  |  | pIC50 ([1]; antagonist mode, 8 μM SLIGKV): 7.73; pIC50 [2, 11]: 7.36; pIC50 [3, 12]: < 6.00; pIC50 ([4]; antagonist mode, 0.6 μM UTP): < 6.00 |
| Cc1cccc(-c2cc(C(C)(C)C)c3nc(C(=O)N4CCN(C(=O)c5cc(C)n[nH]5)CC4(C)C)cn3n2)c1 [Compound I-406] | 8.66 | 8.55 | 6.43 | < 6.00 |  |
| C[C@H]1CN(c2cc(-c3ccc(F)cc3)nn3cc(C(=O)N4CCNC(=O)C4(C)C)nc23)C[C@H](C)O1 [Compound I-183] | 7.82 | 7.47 | 6.08 | 6.09 |  |
| COC(=O)[C@H]1CC[C@H](C(=O)N2CCN(C(=O)c3cn4nc(-c5ccc(Cl)cc5)cc(C(C)C)c4n3)C(C)(C)C2)CC1 [Compound I-546] | 8.74 | 8.80 | < 6.00 | < 6.00 |  |
| Cc1cc(-c2cc(C(C)(C)C)c3nc(C(=O)N4CCN(C(=O)c5ccccn5)CC4(C)C)cn3n2)ccc1F [Compound I-386] | 8.77 | 8.59 | < 6.00 | < 6.00 |  |
| COC(=O)C(C)(C)CC(=O)N1CCN(C(=O)c2cn3nc(-c4ccc(F)cc4)cc(C(C)(C)C)c3n2)C(C)(C)C1 [Compound I-528] | 8.74 | 8.38 | < 6.00 | < 6.00 |  |
| C[C@H]1CN(C(=O)c2cn3nc(-c4ccc(F)cc4)cc(C(F)(F)F)c3n2)CCN1C(=O)OC(C)(C)C [Compound I-1, tert-Butyl (2S)-4-[6-(4-fluorophenyl)-8-(trifluoromethyl)imidazo[1,2-b]pyridazine-2-carbonyl]-2-methyl-piperazine-1-carboxylate] |  |  |  |  | pIC50 ([1]; stimulation with 8 μM SLIGKV): 6.55; pIC50 [2, 5]: 6.00; pIC50 [3, 6]: 5.44; pIC50 ([4]; stimulation with 0.6 μM UTP): 5.51 |
| CC(C)c1cc(-c2ccc(C(F)(F)F)cc2)nn2cc(C(=O)N3CCN(C(=O)C4CC(C)(O)C4)CC3(C)C)nc12 (stereo not drawn) [Compound I-371] | 8.89 | 8.80 | < 6.00 | < 6.00 |  |
| CC(C)(C)c1cc(-c2ccc(F)cc2)nn2cc(C(=O)N3CN(C(C)(C)C)C(=O)C3(C)C)nc12 [Compound I-564] |  |  |  |  | pIC50 ([1]; antagonist mode, 8 μM SLIGKV): 6.90; pIC50 [2, 11]: 6.71; pIC50 [3, 12]: < 6.00; pIC50 ([4]; antagonist mode, 0.6 μM UTP): < 6.00 |
| CCN1CCN(C(=O)c2cn3nc(-c4ccc(F)cc4)cc(C(C)(C)C)c3n2)C(C)(C)C1=O [Compound I-211] | 8.27 | 8.35 | < 6.00 | < 6.00 |  |
| CC(C)CC(O)C(=O)N1CCN(C(=O)c2cn3nc(-c4ccc(F)cc4)cc(C(C)C)c3n2)C[C@@H]1C (stereo partly drawn) [Compound I-109] |  |  |  |  | pIC50 ([1]; stimulation with 8 μM SLIGKV): 9.05; pIC50 [2, 5]: 8.40; pIC50 [3, 6]: 4.96; pIC50 ([4]; stimulation with 0.6 μM UTP): 5.00 |
| CC(C)c1cc(-c2cc(F)cc(F)c2)nn2cc(C(=O)N3CCN(C(=O)C(C)(C)O)CC3(C)C)nc12 [Compound I-224] | 6.96 | 6.79 | < 6.00 | < 6.00 |  |
| Cc1n[nH]c(C(=O)N2CCN(C(=O)c3cn4nc(-c5ccc(F)c(Cl)c5)cc(C(C)(C)C)c4n3)C(C)(C)C2)n1 [Compound I-468] | 9.15 | 8.92 | 5.49 | 5.67 |  |

| Structure (SMILES) | pIC50 [1, 7] | pIC50 [2, 8] | pIC50 [3, 9] | pIC50 [4, 10] | further results |
| --- | --- | --- | --- | --- | --- |
| CC(C)c1cc(-c2ccc(F)cc2)nn2cc(C(=O)N3CCN(c4nn[nH]n4)C(=O)C3(C)C)nc12 [Compound I-275] | 8.01 | 7.78 | < 6.00 | < 6.00 |  |
| CC(C)c1cc(-c2ccc(F)cc2)nn2cc(C(=O)N3CCN(C(=O)[C@H](O)C4CCCCC4)[C@@H](C)C3)nc12 [Compound I-114] |  |  |  |  | pIC50 ([1]; stimulation with 8 μM SLIGKV): 9.30; pIC50 [2, 5]: 9.22; pIC50 [3, 6]: 5.11; pIC50 ([4]; stimulation with 0.6 μM UTP): 5.06 |
| Cc1cccc(-c2cc(C(C)(C)C)c3nc(C(=O)N4CCN(C(=O)C5CC(C)(O)C5)CC4(C)C)cn3n2)c1 (stereo not drawn) [Compound I-409] | 8.77 | 8.77 | 6.08 | < 6.00 |  |
| CC(C)c1cc(-c2ccc(Cl)cc2)nn2cc(C(=O)N3CCN(C(=O)[C@H]4C[C@](O)(C(F)(F)F)C4)CC3(C)C)nc12 [Compound I-542] | 9.70 | 9.52 | < 6.00 | < 6.00 |  |
| CC1(C)CN(C(=O)C2CC(O)(C(F)(F)F)C2)CCN1C(=O)c1cn2nc(-c3ccc(F)cc3)cc(C3CCOCC3)c2n1 (stereo not drawn) [Compound I-204] | 7.37 | 7.03 | < 6.00 | < 6.00 |  |
| CCc1cc(-c2ccc(F)cc2)nn2cc(C(=O)N3CCN(C(=O)[C@H](O)CC(C)(C)C)[C@@H](C)C3)nc12 [Compound I-104] |  |  |  |  | pIC50 ([1]; stimulation with 8 μM SLIGKV): 8.70; pIC50 [2, 5]: 8.15; pIC50 [3, 6]: 4.82; pIC50 ([4]; stimulation with 0.6 μM UTP): 4.92 |
| Cc1cc(C(=O)N2CCN(C(=O)c3cn4nc(-c5ccc(C(F)(F)F)cc5)cc(C(C)C)c4n3)C(C)(C)C2)[nH]n1 [Compound I-390] | 9.00 | 8.89 | < 6.00 | < 6.00 |  |
| C[C@H]1CN(C(=O)c2cn3nc(-c4ccc(F)cc4)cc(C(F)(F)F)c3n2)CCN1C(=O)Cc1ccccc1 [Compound I-90] |  |  |  |  | pIC50 ([1]; stimulation with 8 μM SLIGKV): 7.82; pIC50 [2, 5]: 7.36; pIC50 [3, 6]: < 5.30; pIC50 ([4]; stimulation with 0.6 μM UTP): < 5.30 |
| CC(C)c1cc(-c2ccc(F)cc2)nn2cc(C(=O)N3CCN(C(=O)c4ncccn4)CC3(C)C)nc12 [Compound I-323] | 7.69 | 7.26 | < 6.00 | < 6.00 |  |
| Cc1cc(C(=O)N2CCN(C(=O)c3cn4nc(-c5ccc(Cl)cc5)cc(C(C)(C)C)c4n3)C(C)(C)C2)[nH]n1 [Compound I-434] | 9.30 | 9.30 | < 6.00 | < 6.00 |  |
| Cc1cccc(-c2cc(C(C)(C)C)c3nc(C(=O)N4CCN(C(=O)c5ncccn5)CC4(C)C)cn3n2)c1 [Compound I-412] | 8.19 | 8.00 | 6.15 | < 6.00 |  |
| COC(=O)CC1(C)C(=O)NCCN1C(=O)c1cn2nc(-c3ccc(F)cc3)cc(C(C)(C)C)c2n1 (stereo not drawn) [Compound I-509] | 7.08 | 6.77 | < 6.00 | < 6.00 |  |
| CC1(C)C(=O)NCCN1C(=O)c1cn2nc(-c3ccc(F)cc3)cc(-c3ccncc3)c2n1 [Compound I-569] |  |  |  |  | pIC50 ([1]; antagonist mode, 8 μM SLIGKV): 6.40; pIC50 [2, 11]: 6.19; pIC50 [3, 12]: < 6.00; pIC50 ([4]; antagonist mode, 0.6 μM UTP): < 6.00 |
| CN(C(=O)OC(C)(C)C)C1CCN(C(=O)c2cn3nc(-c4ccc(F)cc4)cc(C(F)(F)F)c3n2)CC1 [Compound I-77] |  |  |  |  | pIC50 ([1]; stimulation with 8 μM SLIGKV): 6.17; pIC50 [3, 6]: < 4.30; pIC50 ([4]; stimulation with 0.6 μM UTP): < 4.30 |
| CC(C)(C)OC(=O)NC1CCN(C(=O)c2cn3nc(-c4ccc(F)cc4)cc(C(F)(F)F)c3n2)CC1 [Compound I-74] |  |  |  |  | pIC50 ([1]; stimulation with 8 μM SLIGKV): 6.32; pIC50 [3, 6]: < 4.30; UTP % @ concentration ([4]; @ 50 (μM)): 62% @ 50 |
| O=C1NCCN2CCN(C(=O)c3cn4nc(-c5ccc(F)cc5)cc(C(F)(F)F)c4n3)CC12 (stereo not drawn) [Compound I-58] |  |  |  |  | pIC50 ([1]; stimulation with 8 μM SLIGKV): 5.89; pIC50 [3, 6]: < 4.30; pIC50 ([4]; stimulation with 0.6 μM UTP): < 4.30 |
